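GI50: concentration for 50% inhibition of growth. The concentration for full growth arrest is given as TGI.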
Assays:
Experiment in all cases: DTP human tumour cell line panel, 384-well format
786-0 renal = test system: 786-0 renal
A498 renal = test system: A498 renal
A549 NSCLC = test system: A549 NSCLC
ACHN renal = test system: ACHN renal
BT-549 breast = test system: BT-549 breast
CAKI-1 renal = test system: CAKI-1 renal
CCRF-CEM leukemia = test system: CCRF-CEM leukemia
COLO 205 colon = test system: COLO 205 colon
DU-145 prostate = test system: DU-145 prostate
EKVX NSCLC = test system: EKVX NSCLC
HCC-2998 colon = test system: HCC-2998 colon
HCT-116 colon = test system: HCT-116 colon
HCT-15 colon = test system: HCT-15 colon
HL-60(TB) leukemia = test system: HL-60(TB) leukemia
HOP-62 NSCLC = test system: HOP-62 NSCLC
HOP-92 NSCLC = test system: HOP-92 NSCLC
HS 578T breast = test system: HS 578T breast
HT29 colon = test system: HT29 colon
IGROV1 ovarian = test system: IGROV1 ovarian
K-562 leukemia = test system: K-562 leukemia
KM12 colon = test system: KM12 colon
LOX IMVI melanoma = test system: LOX IMVI melanoma
M14 melanoma = test system: M14 melanoma
MALME-3M melanoma = test system: MALME-3M melanoma
MCF7 breast = test system: MCF7 breast
MDA-MB-231 breast = test system: MDA-MB-231 breast
MDA-MB-435 melanoma = test system: MDA-MB-435 melanoma
MDA-MB-468 breast = test system: MDA-MB-468 breast
MOLT-4 leukemia = test system: MOLT-4 leukemia
NCI-H226 lung = test system: NCI-H226 lung
NCI-H23 lung = test system: NCI-H23 lung
NCI-H322M lung = test system: NCI-H322M lung
NCI-H460 NSCLC = test system: NCI-H460 NSCLC
NCI-H522 lung = test system: NCI-H522 lung
NCI/ADR-RES ovarian = test system: NCI/ADR-RES ovarian
OVCAR-3 ovarian = test system: OVCAR-3 ovarian
OVCAR-4 ovarian = test system: OVCAR-4 ovarian
OVCAR-5 ovarian = test system: OVCAR-5 ovarian
OVCAR-8 ovarian = test system: OVCAR-8 ovarian
PC-3 prostate = test system: PC-3 prostate
RPMI-8226 leukemia = test system: RPMI-8226 leukemia
RXF 393 renal = test system: RXF 393 renal
SF-268 CNS = test system: SF-268 CNS
SF-295 CNS = test system: SF-295 CNS
SF-539 CNS = test system: SF-539 CNS
SK-MEL-28 melanoma = test system: SK-MEL-28 melanoma
SK-MEL-5 melanoma = test system: SK-MEL-5 melanoma
SK-OV-3 ovarian = test system: SK-OV-3 ovarian
SN12C renal = test system: SN12C renal
SNB-19 CNS = test system: SNB-19 CNS
SNB-75 CNS = test system: SNB-75 CNS
SW-620 colon = test system: SW-620 colon
T-47D breast = test system: T-47D breast
TK-10 renal = test system: TK-10 renal
U251 glioblastoma = test system: U251 glioblastoma
UACC-257 melanoma = test system: UACC-257 melanoma
UACC-62 melanoma = test system: UACC-62 melanoma
UO-31 renal = test system: UO-31 renal

C[C@@H](NC(=O)c1ncnc(N)c1Cl)c1ncc(C(=O)Nc2cc(C(F)(F)F)c(Cl)cn2)s1
GI50 ([…]-0 renal): 16.8 µM | TGI (786-0 renal): 32.9 µM | GI50 (A498 renal): 16.1 µM | TGI (A498 renal): 39.7 µM | GI50 (A549 NSCLC): 10.3 µM | TGI (A549 NSCLC): 27.8 µM | GI50 (ACHN renal): 13.7 µM | TGI (ACHN renal): 37.8 µM | GI50 (BT-549 breast): 16.2 µM | TGI (BT-549 breast): 30.8 µM | GI50 (CAKI-1 renal): 11.6 µM | TGI (CAKI-1 renal): 26.5 µM | GI50 (CCRF-CEM leukemia): 12.8 µM | TGI (CCRF-CEM leukemia): 25.5 µM | GI50 (COLO 205 colon): 0.441 µM | TGI (COLO 205 colon): 12.2 µM | GI50 (DU-145 prostate): 18 µM | TGI (DU-145 prostate): 35.2 µM | GI50 (EKVX NSCLC): 14.8 µM | TGI (EKVX NSCLC): 29.1 µM | GI50 (HCC-2998 colon): 4.74 µM | TGI (HCC-2998 colon): 18.5 µM | GI50 (HCT-116 colon): 2.24 µM | TGI (HCT-116 colon): 13.6 µM | GI50 (HCT-15 colon): 11.2 µM | TGI (HCT-15 colon): 25.6 µM | GI50 (HL-60(TB) leukemia): 0.717 µM | TGI (HL-60(TB) leukemia): 10.8 µM | GI50 (HOP-62 NSCLC): 12 µM | TGI (HOP-62 NSCLC): 24.8 µM | GI50 (HOP-92 NSCLC): 4.23 µM | TGI (HOP-92 NSCLC): 14.9 µM | GI50 (HS 578T breast): 15 µM | TGI (HS 578T breast): 28.4 µM | GI50 (HT29 colon): 0.555 µM | TGI (HT29 colon): 15.4 µM | GI50 (IGROV1 ovarian): 5.42 µM | TGI (IGROV1 ovarian): 20.8 µM | GI50 (K-562 leukemia): 0.281 µM | TGI (K-562 leukemia): 1.2 µM | GI50 (KM12 colon): 13.1 µM | TGI (KM12 colon): 31.3 µM | GI50 (LOX IMVI melanoma): 1.42 µM | TGI (LOX IMVI melanoma): 13.7 µM | GI50 (M14 melanoma): 0.157 µM | TGI (M14 melanoma): 1.16 µM | GI50 (MALME-3M melanoma): 0.0475 µM | TGI (MALME-3M melanoma): 0.289 µM | GI50 (MCF7 breast): 14.5 µM | TGI (MCF7 breast): 28.7 µM | GI50 (MDA-MB-231 breast): 2.11 µM | TGI (MDA-MB-231 breast): 20.3 µM | GI50 (MDA-MB-435 melanoma): 1.37 µM | TGI (MDA-MB-435 melanoma): 15.9 µM | GI50 (MDA-MB-468 breast): 22 µM | TGI (MDA-MB-468 breast): 39 µM | GI50 (MOLT-4 leukemia): 11.1 µM | TGI (MOLT-4 leukemia): 23.2 µM | GI50 (NCI-H226 lung): 15.8 µM | TGI (NCI-H226 lung): 40.4 µM | GI50 (NCI-H23 lung): 1.88 µM | TGI (NCI-H23 lung): 8.75 µM | GI50 (NCI-H322M lung): 13 µM | TGI (NCI-H322M lung): 28.1 µM | GI50 (NCI-H460 NSCLC): 9.03 µM | TGI (NCI-H460 NSCLC): 21.7 µM | GI50 (NCI-H522 lung): 13.7 µM | TGI (NCI-H522 lung): 26.6 µM | GI50 (NCI/ADR-RES ovarian): 16.9 µM | TGI (NCI/ADR-RES ovarian): 32 µM | GI50 (OVCAR-3 ovarian): 16.2 µM | TGI (OVCAR-3 ovarian): 34.1 µM | GI50 (OVCAR-4 ovarian): 20.6 µM | TGI (OVCAR-4 ovarian): 38 µM | GI50 (OVCAR-5 ovarian): 5.67 µM | TGI (OVCAR-5 ovarian): 29.6 µM | GI50 (OVCAR-8 ovarian): 14.4 µM | TGI (OVCAR-8 ovarian): 27.7 µM | GI50 (PC-3 prostate): 20.4 µM | TGI (PC-3 prostate): 35 µM | GI50 (RPMI-8226 leukemia): 13.9 µM | TGI (RPMI-8226 leukemia): 27.1 µM | GI50 (RXF 393 renal): 18.7 µM | TGI (RXF 393 renal): 40 µM | GI50 (SF-268 CNS): 12.3 µM | TGI (SF-268 CNS): 24.9 µM | GI50 (SF-295 CNS): 17.7 µM | TGI (SF-295 CNS): 32.8 µM | GI50 (SF-539 CNS): 17.4 µM | TGI (SF-539 CNS): 35.9 µM | GI50 (SK-MEL-28 melanoma): 0.419 µM | TGI (SK-MEL-28 melanoma): 2.67 µM | GI50 (SK-MEL-5 melanoma): 1.35 µM | TGI (SK-MEL-5 melanoma): 15.2 µM | GI50 (SK-OV-3 ovarian): 20.5 µM | TGI (SK-OV-3 ovarian): 42.6 µM | GI50 (SN12C renal): 15.3 µM | TGI (SN12C renal): 40.6 µM | GI50 (SNB-19 CNS): 29.4 µM | TGI (SNB-19 CNS): 91.4 µM | GI50 (SNB-75 CNS): 23.7 µM | TGI (SNB-75 CNS): 48.1 µM | GI50 (SW-620 colon): 10.8 µM | TGI (SW-620 colon): 26.6 µM | GI50 (T-47D breast): 10.2 µM | TGI (T-47D breast): 22.7 µM | GI50 (TK-10 renal): 18.8 µM | TGI (TK-10 renal): 36.4 µM | GI50 (U251 glioblastoma): 18 µM | TGI (U251 glioblastoma): 39.1 µM | GI50 (UACC-257 melanoma): 0.406 µM | TGI (UACC-257 melanoma): 2.48 µM | GI50 (UACC-62 melanoma): 0.154 µM | TGI (UACC-62 melanoma): 1.41 µM | GI50 (UO-31 renal): 11.5 µM | TGI (UO-31 renal): 32.5 µM

Reference: PubChem BioAssay (NCI)
